{"source": "patent US20100267561A1", "about": "“HERBICIDAL PYRIDAZINONE DERIVATIVES” (priority 2007, published 2010)", "assay_in_all_cases": "Test E pre-/postemergence plant response", "format_in_all_cases": "in vivo", "key": {"[1]": {"system": "large crabgrass (Digitaria sanguinalis)", "settings": "scale 0 to 100", "description": "(§1) Seeds of plant species selected from bermudagrass (Cynodon dactylon), Surinam grass (Brachiaria decumbens), large crabgrass (Digitaria sanguinalis), green foxtail (Setaria viridis), goosegrass (Eleusine indica), johnsongrass (Sorghum halepense), kochia (Kochia scoparia), pitted morningglory (Ipomoea lacunosa), purple nutsedge (Cyperus rotundus), common ragweed (Ambrosia elation), black mustard (Brassica nigra), guineagrass (Panicum maximum), dallisgrass (Paspalum dilatatum), barnyardgrass (Echinochloa crus-galli), southern (S.) sandbur (Cenchrus echinatus), common sowthistle (Sonchus oleraceous), prickly sida (Sida spinosa), Italian ryegrass (Lolium multiflorum), common purslane (Portulaca oleracea), broadleaf signalgrass (Brachiaria platyphylla), common groundsel (Senecio vulgaris), common chickweed (Stellaria media), Virginia (V.) dayflower (Commelina virginica), tropical (T.) spiderwort (Commelina benghalensis), annual bluegrass (Poa annua), naked crabgrass (Digitaria nuda), itchgrass (Rottboellia cochinchinensis), quackgrass (Elytrigia repens), Canada horseweed (Conyza canadensis), field bindweed (Convolvulus arvensis), spanishneedles (Bidens bipinnata), common mallow (Malva sylvestris) and Russian thistle (Salsola kali) were planted and treated preemergence with test chemicals formulated in a non-phytotoxic solvent mixture which included a surfactant. At the same time, plants selected from these weed species were treated with postemergence applications of some of the test chemicals formulated in the same manner. Plants ranged in height from 2 to 18 cm (1- to 4-leaf stage) for postemergence treatments.\n(§2) Treated plants and controls were maintained in a greenhouse for 14 to 21 days, after which time all species were compared to controls and visually evaluated. Plant response ratings, summarized in Table E, are based on a scale of 0 to 100 where 0 is no effect and 100 is complete control. A dash (-) response means no test result."}, "[2]": {"system": "dallisgrass (Paspalum dilatatum)", "settings": "scale 0 to 100", "description": "as §1, §2"}, "[3]": {"system": "broadleaf signalgrass (Brachiaria platyphylla)", "settings": "scale 0 to 100", "description": "as §1, §2"}, "[4]": {"system": "southern (S.) sandbur (Cenchrus echinatus)", "settings": "scale 0 to 100", "description": "as §1, §2"}, "[5]": {"system": "Italian ryegrass (Lolium multiflorum)", "settings": "scale 0 to 100", "description": "as §1, §2"}, "[6]": {"system": "common chickweed (Stellaria media)", "settings": "Postemergence, scale 0 to 100", "description": "as §1, §2"}, "[7]": {"system": "common purslane (Portulaca oleracea)", "settings": "scale 0 to 100", "description": "as §1, §2"}, "[8]": {"system": "naked crabgrass (Digitaria nuda)", "settings": "scale 0 to 100", "description": "as §1, §2"}, "[9]": {"system": "black mustard (Brassica nigra)", "settings": "scale 0 to 100", "description": "as §1, §2"}, "[10]": {"system": "quackgrass (Elytrigia repens)", "settings": "scale 0 to 100", "description": "as §1, §2"}}}
{"smiles": "Cc1cc(-c2ccc(Cl)cc2)nn1-c1c(OS(C)(=O)=O)cnn(C)c1=O", "note": "[Compound 36]", "values": [{"measurement": "Plant response rating, Crabgrass, Large", "setting": "[1]; 8 g ai/ha, Preemergence", "result": 35}, {"measurement": "Plant response rating, Crabgrass, Large", "setting": "[1]; 16 g ai/ha, Preemergence", "result": 95}, {"measurement": "Plant response rating, Crabgrass, Large", "setting": "[1]; 31 g ai/ha, Preemergence", "result": 98}, {"measurement": "Plant response rating, Crabgrass, Large", "setting": "[1]; 62 g ai/ha, Preemergence", "result": 98}, {"measurement": "Plant response rating, Crabgrass, Large", "setting": "[1]; Postemergence, 8 g ai/ha", "result": 65}, {"measurement": "Plant response rating, Crabgrass, Large", "setting": "[1]; Postemergence, 16 g ai/ha", "result": 70}, {"measurement": "Plant response rating, Crabgrass, Large", "setting": "[1]; Postemergence, 31 g ai/ha", "result": 75}, {"measurement": "Plant response rating, Crabgrass, Large", "setting": "[1]; Postemergence, 62 g ai/ha", "result": 80}, {"measurement": "Plant response rating, Dallisgrass", "setting": "[2]; 8 g ai/ha, Preemergence", "result": 35}, {"measurement": "Plant response rating, Dallisgrass", "setting": "[2]; 16 g ai/ha, Preemergence", "result": 60}, {"measurement": "Plant response rating, Dallisgrass", "setting": "[2]; 31 g ai/ha, Preemergence", "result": 75}, {"measurement": "Plant response rating, Dallisgrass", "setting": "[2]; 62 g ai/ha, Preemergence", "result": 98}, {"measurement": "Plant response rating, Dallisgrass", "setting": "[2]; Postemergence, 8 g ai/ha", "result": 0}, {"measurement": "Plant response rating, Dallisgrass", "setting": "[2]; Postemergence, 16 g ai/ha", "result": 20}, {"measurement": "Plant response rating, Dallisgrass", "setting": "[2]; Postemergence, 31 g ai/ha", "result": 30}, {"measurement": "Plant response rating, Dallisgrass", "setting": "[2]; Postemergence, 62 g ai/ha", "result": 50}, {"measurement": "Plant response rating, Signalgrass", "setting": "[3]; 16 g ai/ha, Preemergence", "result": 70}, {"measurement": "Plant response rating, Signalgrass", "setting": "[3]; 31 g ai/ha, Preemergence", "result": 100}, {"measurement": "Plant response rating, Signalgrass", "setting": "[3]; 62 g ai/ha, Preemergence", "result": 100}, {"measurement": "Plant response rating, Signalgrass", "setting": "[3]; Postemergence, 8 g ai/ha", "result": 10}, {"measurement": "Plant response rating, Signalgrass", "setting": "[3]; Postemergence, 16 g ai/ha", "result": 50}, {"measurement": "Plant response rating, Signalgrass", "setting": "[3]; Postemergence, 31 g ai/ha", "result": 90}, {"measurement": "Plant response rating, Signalgrass", "setting": "[3]; Postemergence, 62 g ai/ha", "result": 100}, {"measurement": "Plant response rating, Sandbur, S.", "setting": "[4]; 16 g ai/ha, Preemergence", "result": 90}, {"measurement": "Plant response rating, Sandbur, S.", "setting": "[4]; 31 g ai/ha, Preemergence", "result": 100}, {"measurement": "Plant response rating, Sandbur, S.", "setting": "[4]; 62 g ai/ha, Preemergence", "result": 100}, {"measurement": "Plant response rating, Sandbur, S.", "setting": "[4]; Postemergence, 8 g ai/ha", "result": 40}, {"measurement": "Plant response rating, Sandbur, S.", "setting": "[4]; Postemergence, 16 g ai/ha", "result": 65}, {"measurement": "Plant response rating, Sandbur, S.", "setting": "[4]; Postemergence, 31 g ai/ha", "result": 80}, {"measurement": "Plant response rating, Sandbur, S.", "setting": "[4]; Postemergence, 62 g ai/ha", "result": 85}, {"measurement": "Plant response rating, Ryegrass, Italian", "setting": "[5]; 16 g ai/ha, Preemergence", "result": 100}, {"measurement": "Plant response rating, Ryegrass, Italian", "setting": "[5]; 31 g ai/ha, Preemergence", "result": 100}, {"measurement": "Plant response rating, Ryegrass, Italian", "setting": "[5]; 62 g ai/ha, Preemergence", "result": 100}, {"measurement": "Plant response rating, Ryegrass, Italian", "setting": "[5]; Postemergence, 8 g ai/ha", "result": 0}, {"measurement": "Plant response rating, Ryegrass, Italian", "setting": "[5]; Postemergence, 16 g ai/ha", "result": 35}, {"measurement": "Plant response rating, Ryegrass, Italian", "setting": "[5]; Postemergence, 31 g ai/ha", "result": 60}, {"measurement": "Plant response rating, Ryegrass, Italian", "setting": "[5]; Postemergence, 62 g ai/ha", "result": 80}, {"measurement": "Plant response rating, Chickweed", "setting": "[6]; 8 g ai/ha", "result": 0}, {"measurement": "Plant response rating, Chickweed", "setting": "[6]; 16 g ai/ha", "result": 0}, {"measurement": "Plant response rating, Purslane", "setting": "[7]; 16 g ai/ha, Preemergence", "result": 0}, {"measurement": "Plant response rating, Purslane", "setting": "[7]; 31 g ai/ha, Preemergence", "result": 0}, {"measurement": "Plant response rating, Purslane", "setting": "[7]; 62 g ai/ha, Preemergence", "result": 0}, {"measurement": "Plant response rating, Purslane", "setting": "[7]; Postemergence, 8 g ai/ha", "result": 0}, {"measurement": "Plant response rating, Purslane", "setting": "[7]; Postemergence, 16 g ai/ha", "result": 0}, {"measurement": "Plant response rating, Purslane", "setting": "[7]; Postemergence, 31 g ai/ha", "result": 0}, {"measurement": "Plant response rating, Purslane", "setting": "[7]; Postemergence, 62 g ai/ha", "result": 0}, {"measurement": "Plant response rating, Crabgrass, Naked", "setting": "[8]; 8 g ai/ha, Preemergence", "result": 90}, {"measurement": "Plant response rating, Crabgrass, Naked", "setting": "[8]; 16 g ai/ha, Preemergence", "result": 100}, {"measurement": "Plant response rating, Crabgrass, Naked", "setting": "[8]; 31 g ai/ha, Preemergence", "result": 100}, {"measurement": "Plant response rating, Crabgrass, Naked", "setting": "[8]; 62 g ai/ha, Preemergence", "result": 100}, {"measurement": "Plant response rating, Crabgrass, Naked", "setting": "[8]; Postemergence, 8 g ai/ha", "result": 40}, {"measurement": "Plant response rating, Crabgrass, Naked", "setting": "[8]; Postemergence, 16 g ai/ha", "result": 60}, {"measurement": "Plant response rating, Crabgrass, Naked", "setting": "[8]; Postemergence, 31 g ai/ha", "result": 90}, {"measurement": "Plant response rating, Crabgrass, Naked", "setting": "[8]; Postemergence, 62 g ai/ha", "result": 98}, {"measurement": "Plant response rating, Mustard, Black", "setting": "[9]; 8 g ai/ha, Preemergence", "result": 0}, {"measurement": "Plant response rating, Mustard, Black", "setting": "[9]; 16 g ai/ha, Preemergence", "result": 0}, {"measurement": "Plant response rating, Mustard, Black", "setting": "[9]; 31 g ai/ha, Preemergence", "result": 0}, {"measurement": "Plant response rating, Mustard, Black", "setting": "[9]; 62 g ai/ha, Preemergence", "result": 0}, {"measurement": "Plant response rating, Mustard, Black", "setting": "[9]; Postemergence, 8 g ai/ha", "result": 0}, {"measurement": "Plant response rating, Mustard, Black", "setting": "[9]; Postemergence, 16 g ai/ha", "result": 0}, {"measurement": "Plant response rating, Mustard, Black", "setting": "[9]; Postemergence, 31 g ai/ha", "result": 0}, {"measurement": "Plant response rating, Mustard, Black", "setting": "[9]; Postemergence, 62 g ai/ha", "result": 0}, {"measurement": "Plant response rating, Quackgrass", "setting": "[10]; 16 g ai/ha, Preemergence", "result": 20}, {"measurement": "Plant response rating, Quackgrass", "setting": "[10]; 31 g ai/ha, Preemergence", "result": 50}, {"measurement": "Plant response rating, Quackgrass", "setting": "[10]; 62 g ai/ha, Preemergence", "result": 70}, {"measurement": "Plant response rating, Quackgrass", "setting": "[10]; Postemergence, 8 g ai/ha", "result": 0}, {"measurement": "Plant response rating, Quackgrass", "setting": "[10]; Postemergence, 16 g ai/ha", "result": 0}, {"measurement": "Plant response rating, Quackgrass", "setting": "[10]; Postemergence, 31 g ai/ha", "result": 30}, {"measurement": "Plant response rating, Quackgrass", "setting": "[10]; Postemergence, 62 g ai/ha", "result": 35}]}
